Values of other authors in paper PMC11767451, “Novel Approaches to Monitor Pharmacokinetics and Metabolism of Gemcitabine-Ibandronate Conjugate in Mice and Dogs” (Molecules, 2025).

Tested on: bone-associated cancer cells
Parameters: method as in PMID 30413669
Settings: cited from earlier work

CC(O)(P(=O)(O)O)P(=O)(O)OP(=O)(O)OC[C@H]1O[C@@H](n2ccc(N)nc2=O)[C@@H](O)[C@@H]1O (stereo partly drawn) [MBC-11]
bone localized effects compared to free cytarabine (clinical trials): 2–20 fold
metabolic activity of bone-associated cancer cells (in humans): significant reductions
tolerability (in humans): well tolerated
